# Several values for one entry are separate records, joined by “and”; a condition that tells them apart may be missing. Equal entries are not always repeated. Inconclusive results and toxic doses are left out.
# Test system: P388 leukemia ip, CD2F1 mice, survival T/C
# Test: NCI In Vivo Anticancer Drug Screen. Data for tumor model P388 Leukemia (intraperitoneal) in CD2F1 (CDF1) mice
# Details: endpoint: median survival time, higher = longer survival
# How it was run: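 Mice carrying the transplanted tumor received test compound or vehicle. Survival was recorded in each group, and the value is the treated-group measurement divided by that of the vehicle-treated control group.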
# [1] = dose: 50.0 mg/kg/injection, schedule: Q01DX005 (ip), vehicle: Klucel (hydroxypropylcellulose) (HPC)
# [2] = dose: 100.0 mg/kg/injection, schedule: Q01DX005 (ip), vehicle: Klucel (hydroxypropylcellulose) (HPC)
# [3] = dose: 200.0 mg/kg/injection, schedule: Q01DX005 (ip), vehicle: Klucel (hydroxypropylcellulose) (HPC)
# [4] = dose: 100.0 mg/kg/injection, schedule: Q01DX001 (ip), vehicle: saline with Tween-80
# [5] = dose: 200.0 mg/kg/injection, schedule: Q01DX001 (ip), vehicle: saline with Tween-80
# [6] = dose: 50.0 mg/kg/injection, schedule: Q04DX003 (ip), vehicle: Klucel (hydroxypropylcellulose) (HPC)
# [7] = dose: 100.0 mg/kg/injection, schedule: Q04DX003 (ip), vehicle: Klucel (hydroxypropylcellulose) (HPC)
# [8] = dose: 200.0 mg/kg/injection, schedule: Q04DX003 (ip), vehicle: Klucel (hydroxypropylcellulose) (HPC)
# [9] = dose: 25.0 mg/kg/injection, schedule: Q04DX002 (ip), vehicle: saline with Tween-80
# [10] = dose: 50.0 mg/kg/injection, schedule: Q04DX002 (ip), vehicle: saline with Tween-80
# [11] = dose: 60.0 mg/kg/injection, schedule: Q01DX005 (ip), vehicle: saline with Tween-80
# [12] = dose: 50.0 mg/kg/injection, schedule: Q01DX009 (ip), vehicle: saline with Tween-80
# [13] = dose: 100.0 mg/kg/injection, schedule: Q01DX009 (ip), vehicle: saline with Tween-80
# [14] = dose: 200.0 mg/kg/injection, schedule: Q01DX009 (ip), vehicle: saline with Tween-80
# [15] = dose: 120.0 mg/kg/injection, schedule: Q01DX005 (ip), vehicle: saline with Tween-80
# [16] = dose: 240.0 mg/kg/injection, schedule: Q01DX005 (ip), vehicle: saline with Tween-80
# [17] = dose: 100.0 mg/kg/injection, schedule: Q04DX002 (ip), vehicle: saline with Tween-80
# [18] = dose: 50.0 mg/kg/injection, schedule: Q01DX005 (ip), vehicle: saline with Tween-80
smiles,measurement,setting,value
NC(=NCc1ccccc1)c1ccc(N=C(N)c2ccc(C(N)=Nc3ccc(C(N)=NCc4ccccc4)cc3)cc2)cc1,T/C,"dose: 5.0 mg/kg/injection, schedule: Q01DX009 (ip), vehicle: saline sonified",118 % of control
same,T/C,"dose: 6.6 mg/kg/injection, schedule: Q01DX009 (ip), vehicle: saline",109 % of control
same,T/C,"dose: 10.0 mg/kg/injection, schedule: Q01DX009 (ip), vehicle: saline",122 % of control
same,T/C,"dose: 10.0 mg/kg/injection, schedule: Q04DX003 (ip), vehicle: saline with Tween-80",104 % of control
same,T/C,"dose: 20.0 mg/kg/injection, schedule: Q04DX003 (ip), vehicle: saline with Tween-80",95 % of control
COc1cc(CCC(C)=O)ccc1OC(=O)c1c(-c2c(F)cccc2Cl)noc1C,T/C,[1],91 % of control
same,T/C,[2],91 % of control
same,T/C,[3],91 % of control
Cc1coc2c3c(ccc12)OC(C)(C)C=C3,T/C,[4],102 % of control
same,T/C,[5],104 % of control
C=C1C(=O)OC2C(O)CCCC12 (stereo not drawn),T/C,[6],105 % of control and 110 % of control
same,T/C,[7],98 % of control and 103 % of control
same,T/C,[8],110 % of control
CN=C(N)NN=C1c2ccccc2-c2ccccc21,T/C,[9],97 % of control
same,T/C,[10],101 % of control
CCC1=C[C@@H]2C[C@](C(=O)OC)(c3cc4c(cc3OC)N(C)[C@H]3[C@@](O)(C(=O)OC)[C@H](OC(C)=O)[C@]5(CC)C=CCN6CC[C@]43[C@@H]65)c3[nH]c4ccccc4c3CCN(C1)C2=O,T/C,"dose: 4.7 mg/kg/injection, schedule: Q01DX001 (ip), vehicle: other",113 % of control
same,T/C,"dose: 9.4 mg/kg/injection, schedule: Q01DX001 (ip), vehicle: other",117 % of control
same,T/C,"dose: 37.5 mg/kg/injection, schedule: Q01DX001 (ip), vehicle: suspension in saline",195 % of control
[O]=[Ge]([c]1ccccc1)[c]1ccccc1,T/C,"dose: 50.0 mg/kg/injection, schedule: Q01DX009 (ip), vehicle: saline",95 % of control
same,T/C,"dose: 100.0 mg/kg/injection, schedule: Q01DX009 (ip), vehicle: saline",96 % of control
same,T/C,"dose: 200.0 mg/kg/injection, schedule: Q01DX009 (ip), vehicle: saline",92 % of control
COc1ccc2nc(-c3ccc(Cl)cc3)cc(C(=O)O)c2c1,T/C,[1],99 % of control
same,T/C,[2],100 % of control
same,T/C,[3],100 % of control
c1ccc2c(c1)NC(NC1Nc3ccccc3N1)N2,T/C,"dose: 30.0 mg/kg/injection, schedule: Q01DX005 (ip), vehicle: saline with Tween-80",91 % of control
same,T/C,[11],86 % of control and 97 % of control
CC/C(=N/N(C)C)C(=O)OC,T/C,"dose: 100.0 mg/kg/injection, schedule: Q04DX002 (ip), vehicle: saline",95 % of control
same,T/C,"dose: 200.0 mg/kg/injection, schedule: Q04DX002 (ip), vehicle: saline",100 % of control
same,T/C,"dose: 400.0 mg/kg/injection, schedule: Q04DX002 (ip), vehicle: saline",98 % of control
COc1ccc(CC(N)c2nn[nH]n2)cc1 (stereo not drawn),T/C,[12],96 % of control
same,T/C,[13],98 % of control
Cc1cc(Cl)ccc1S(=O)(=O)F,T/C,[12],113 % of control
same,T/C,[13],113 % of control
same,T/C,[14],98 % of control
Cc1ccc(NC(=O)Oc2ccc([N+](=O)[O-])cc2)cc1S(=O)(=O)F,T/C,[11],113 % of control
same,T/C,[15],104 % of control
same,T/C,[16],95 % of control
Cc1cc(CCN)c(C)c2c1oc1ccccc12,T/C,"dose: 25.0 mg/kg/injection, schedule: Q04DX003 (ip), vehicle: Klucel (hydroxypropylcellulose) (HPC)",103 % of control
same,T/C,[6],99 % of control
same,T/C,[7],100 % of control
same,T/C,[8],105 % of control
CC(C)N=C(C1=C(O)c2ccccc2C1=O)c1ccccc1,T/C,[9],100 % of control
same,T/C,[10],104 % of control
same,T/C,[17],100 % of control
CN(C)CC(CN(C)C)C(=O)c1ccc2c(c1)OCO2,T/C,"dose: 15.0 mg/kg/injection, schedule: Q01DX005 (ip), vehicle: saline",122 % of control
same,T/C,"dose: 30.0 mg/kg/injection, schedule: Q01DX005 (ip), vehicle: saline",117 % of control
same,T/C,"dose: 60.0 mg/kg/injection, schedule: Q01DX005 (ip), vehicle: saline",119 % of control
CCc1nc(N)nc(N)c1-c1ccc(N(C)C)c(N=[N+]=[N-])c1,T/C,"dose: 15.0 mg/kg/injection, schedule: Q01DX005 (ip), vehicle: Klucel (hydroxypropylcellulose) (HPC)",96 % of control
same,T/C,"dose: 30.0 mg/kg/injection, schedule: Q01DX005 (ip), vehicle: Klucel (hydroxypropylcellulose) (HPC)",92 % of control
same,T/C,"dose: 60.0 mg/kg/injection, schedule: Q01DX005 (ip), vehicle: Klucel (hydroxypropylcellulose) (HPC)",105 % of control and 113 % of control
C=C1C(C2(C)C(OC(C)=O)CC(=O)OC3(C)COC(=O)CC32)C(OC=O)C(OC(=O)CC(C)C)C2(C)C(c3ccoc3)CC(=O)C12O (stereo not drawn),T/C,"dose: 0.25 mg/kg/injection, schedule: Q01DX009 (ip), vehicle: Klucel (hydroxypropylcellulose) (HPC)",88 % of control
same,T/C,"dose: 0.5 mg/kg/injection, schedule: Q01DX009 (ip), vehicle: Klucel (hydroxypropylcellulose) (HPC)",91 % of control
same,T/C,"dose: 1.0 mg/kg/injection, schedule: Q01DX009 (ip), vehicle: Klucel (hydroxypropylcellulose) (HPC)",88 % of control
same,T/C,"dose: 2.0 mg/kg/injection, schedule: Q01DX009 (ip), vehicle: Klucel (hydroxypropylcellulose) (HPC)",97 % of control
NCC(O)c1cccc(O)c1 (stereo not drawn),T/C,"dose: 6.25 mg/kg/injection, schedule: Q01DX009 (ip), vehicle: saline",101 % of control and 92 % of control
same,T/C,"dose: 12.5 mg/kg/injection, schedule: Q01DX009 (ip), vehicle: saline",101 % of control and 95 % of control
same,T/C,"dose: 25.0 mg/kg/injection, schedule: Q01DX009 (ip), vehicle: saline",100 % of control
Cc1cc[n+](C2=C(Nc3ccc(Cl)cc3C)C(=O)c3ccccc3C2=O)cc1,T/C,"dose: 12.5 mg/kg/injection, schedule: Q01DX005 (ip), vehicle: saline with Tween-80",109 % of control
same,T/C,"dose: 25.0 mg/kg/injection, schedule: Q01DX005 (ip), vehicle: saline with Tween-80",109 % of control
same,T/C,[18],119 % of control
same,T/C,[11],121 % of control
COC(=O)/C=C(\O)C(Cc1cc(OC)c2c(c1O)C(=O)c1c(OC)cccc1C2=O)C(=O)OC (stereo not drawn),T/C,[4],101 % of control
same,T/C,[5],102 % of control
same,T/C,"dose: 400.0 mg/kg/injection, schedule: Q01DX001 (ip), vehicle: saline with Tween-80",97 % of control
CCCCCCCCCCCCCCCCS(=O)(=O)c1ccc(S(=O)(=O)F)cc1NC(C)=O,T/C,"dose: 50.0 mg/kg/injection, schedule: Q04DX003 (ip), vehicle: saline sonified",104 % of control
same,T/C,"dose: 100.0 mg/kg/injection, schedule: Q04DX003 (ip), vehicle: saline sonified",95 % of control
same,T/C,"dose: 200.0 mg/kg/injection, schedule: Q04DX003 (ip), vehicle: saline sonified",100 % of control
CC1(C)NN=C([N+](=O)[O-])C1c1ccccc1 (stereo not drawn),T/C,[11],107 % of control
same,T/C,[15],111 % of control
same,T/C,[16],107 % of control
COc1ccc(Sc2c(C(=O)O)cccc2C(=O)O)cc1,T/C,[17],102 % of control
same,T/C,"dose: 200.0 mg/kg/injection, schedule: Q04DX002 (ip), vehicle: saline with Tween-80",100 % of control
same,T/C,"dose: 400.0 mg/kg/injection, schedule: Q04DX002 (ip), vehicle: saline with Tween-80",101 % of control
COC1/C=C\OC2(C)Oc3c(C)c(O)c4c(O)c(c5c(c4c3C2=O)NC2(CCN(Cc3ccccc3)CC2)N=5)=NC(=O)/C(C)=C\C=C\C(C)C(O)C(C)C(O)C(C)C(OC(C)=O)C1C (stereo not drawn),T/C,"dose: 25.0 mg/kg/injection, schedule: Q01DX009 (ip), vehicle: Klucel (hydroxypropylcellulose) (HPC)",102 % of control
same,T/C,"dose: 50.0 mg/kg/injection, schedule: Q01DX009 (ip), vehicle: Klucel (hydroxypropylcellulose) (HPC)",107 % of control
same,T/C,"dose: 100.0 mg/kg/injection, schedule: Q01DX009 (ip), vehicle: Klucel (hydroxypropylcellulose) (HPC)",111 % of control
same,T/C,"dose: 200.0 mg/kg/injection, schedule: Q01DX009 (ip), vehicle: Klucel (hydroxypropylcellulose) (HPC)",103 % of control
O=C(Nc1ccc(-c2cn3ccccc3n2)cc1)c1ccccc1O,T/C,[12],88 % of control
same,T/C,[13],87 % of control
same,T/C,[14],101 % of control
CN(C(=O)C(F)(F)F)[Si](C)(C)C,T/C,[18],100 % of control
same,T/C,"dose: 100.0 mg/kg/injection, schedule: Q01DX005 (ip), vehicle: saline with Tween-80",105 % of control
same,T/C,"dose: 200.0 mg/kg/injection, schedule: Q01DX005 (ip), vehicle: saline with Tween-80",95 % of control

# Source: PubChem BioAssay AID330 (DTP/NCI, 2004)
